From ChEMBL document CHEMBL1123140, “Acylamino boronic acids and difluoroborane analogues of amino acids: potent inhibitors of chymotrypsin and elastase” (J Med Chem, 1985)

Target: Chymotrypsinogen B (Homo sapiens, UniProt P17538)
Assay: Competitive inhibition of alpha-chymotrypsin

Chain of Chymotrypsinogen B (P17538 34-164 limits assumed, other chains not shown): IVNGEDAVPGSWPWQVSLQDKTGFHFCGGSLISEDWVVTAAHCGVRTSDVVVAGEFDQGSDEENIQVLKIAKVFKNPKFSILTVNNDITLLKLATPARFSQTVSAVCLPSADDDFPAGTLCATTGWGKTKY
Chain of Chymotrypsinogen B (P17538 167-263 limits assumed, other chains not shown): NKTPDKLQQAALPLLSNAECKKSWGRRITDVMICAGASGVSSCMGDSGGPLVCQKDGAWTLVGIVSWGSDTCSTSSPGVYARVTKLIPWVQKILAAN

| Compound | Ki [nM] |
| --- | --- |
| CC(NC(=O)OCc1ccccc1)C(=O)NC(B(F)F)c1ccccc1 (stereo not given) | 2000 |
| O=C(NC(B(F)F)c1ccccc1)c1ccccc1 (stereo not given) | 5000 |
| O=C(NC(Cc1ccccc1)B(F)F)c1ccccc1 (stereo not given) | 650 |
| O=C(N[C@@H](Cc1ccccc1)B(F)F)c1ccccc1 | 270 |

Second part, the compound after the results:

| Ki [nM] | Compound |
| --- | --- |
| 1700 | CC(=O)N[C@@H](Cc1ccccc1)B(F)F |
| 650 | O=C(NC(Cc1ccccc1)B(O)O)c1ccccc1 (stereo not given) |
| 360 | O=C(N[C@@H](Cc1ccccc1)B(O)O)c1ccccc1 |
| 7400 | CC(=O)NC(Cc1ccccc1)B(F)F (stereo not given) |
| 2100 | CC(=O)N[C@@H](Cc1ccccc1)B(O)O |
| 6500 | CC(=O)NC(Cc1ccccc1)B(O)O (stereo not given) |

Target: not listed separately
Assay: Competitive inhibition of porcine elastase by the compound was evaluated
Set-up: species or system Sus scrofa

| Ki [nM] | Compound |
| --- | --- |
| 100 | CC[C@H](C)[C@H](NC(=O)C(C)NC(=O)OCc1ccccc1)B(F)F (stereo not given in full) |
| 120 | CC[C@H](C)[C@H](NC(=O)C(C)NC(=O)OCc1ccccc1)B(O)O (stereo not given in full) |
| 1100 | CC(NC(=O)OCc1ccccc1)C(=O)N[C@H](B(O)O)C(C)C (stereo not given in full) |
| 1000 | CC(NC(=O)OCc1ccccc1)C(=O)N[C@H](B(F)F)C(C)C (stereo not given in full) |
| 34500 | CC(NC(=O)OCc1ccccc1)C(=O)N[C@@H](C)B(F)F (stereo not given in full) |
